Results as given in US11752125B2, “Anti-neuroinflammatory and protective compounds in Achillea fragrantissima” (THE STATE OF ISRAEL MINISTRY OF AGRICULTURE & RURAL …, priority 2013, dated 2023).

Legend:
N2a neuronal cells [1] = test: Aβ25-35-induced neuronal cell death (LDH, crystal violet); type: cell-based; details: Aβ25-35 25 μM, 20 hr; LDH and crystal violet
Description: Treat N2a neuronal cells with 25 micromolars of freshly diluted Aβ25-35 in the presence or absence of AcA or TTF.
N2a neuronal cells were treated with Aβ25-35 (25 μM) and TTF. Cytotoxicity (FIG. 10A) and viability (FIG. 10B) were obtained through LDH method and Crystal violet staining respectively and measured 20 hr later. The results are the mean±SEM of two different experiments (n=15).
N2a neuronal cells were treated with Aβ25-35 (25 μM) and achillolide A. Cytotoxicity (FIG. 27A) viability (FIG. 27B) and ROS levels (FIG. 27C) were measured 20 hr later. The results are the mean±SEM of two different experiments (n=16).

N2a neuronal cells [2] = test: Glutamate-induced neuronal cell death (LDH); type: cell-based; details: LDH 20 hr later
Description: Grow N2a cells in DMEM (high glucose, 225 ml), Opti-MEM (250 ml) containing 1% Fetal Bovine Serum, 2 mM L-Glutamine, 100 U/ml penicillin and 100 micrograms/mL streptomycin.
Treat N2a neuronal cells with AcA or TTF.
Two hr later add 100 micromolars of freshly diluted glutamate;
Incubate the culture for 20 hr (37° C., 5% CO2);
Measure cytotoxicity by the LDH method
N2a neuronal cells were treated with glutamate (100 μM) and TTF. Cytotoxicity was measured 20 hr later. The results are shown in FIG. 16 and are the mean±SEM of one experiment (n=8).
Achillolide A was added to N2a cells before (−2 h, −1 h) concomitant (0) or after (1 h, 2 h) the addition of glutamate. Cytotoxicity was measured 20 h later by the levels of LDH in the conditioned media. Results are means±SEM of two experiments (n=16). **P<0.01, ***P<0.001, compared to cells that were treated with glutamate only.
N2a neuronal cells were treated with Aβ25-35 (25 μM) and achillolide A. Cytotoxicity was measured 20 hr later. The results are the means±SEM of two different experiments (n=16).
N2a neuronal cells were treated with Aβ25-35 (25 μM) and achillolide A or memantine. Cytotoxicity was measured 20 hr later. The results are the mean±SEM of two different experiments (n=16) for AcA and one experiment (n=8) for memantine.

CREB = test: Aβ25-35-induced CREB phosphorylation in N2a cells (ELISA); type: cell-based; details: concomitant treatment 30 min
Description: 7. Measure the amount of total and phosphorylated CREB in cell lysates of N2a cells, by ELISA using the PathScan total CREB sandwich ELISA kit (Cell Signaling TECHNOLOGY) or the PathScan phosoho-CREB (Ser133) sandwich ELISA kit (Cell Signaling TECHNOLOGY), respectively. 8. Determine the optical density at 450 nm using a microplate reader.
N2a cells were treated concomitantly with Aβ25-35 and TTF for 30 min. Cells were extracted and the levels of phosphorylated (FIG. 15 A) or total (FIG. 15 B) CREB were determined by specific ELISA kits. The results are the mean±SEM of one experiment (n=2).
N2a cells were treated concomitantly with Aβ25-35 and AcA for 30 min. Cells were extracted and the levels of phosphorylated CREB were determined by A specific ELISA kit. The results are the mean±SEM of one experiment (n=2).

microglial cells = test: Cytotoxicity in LPS-activated microglial cells (LDH); type: cell-based, rat; details: LPS 4.5 ng/mL, 20 h
Description: Cell viability was determined using a commercial colorimetric assay (Roche Applied Science, Germany) which measures Lactate Dehydrogenase (LDH) activity released from the cytosol of damaged cells into the incubation medium. The absorbance was measured at 492 nm in a plate reader. The percentage of cytotoxicity was calculated according to the following equation, where the LDH activity released from the untreated cells is the spontaneous LDH release, and the maximum releasable LDH in the cells is the:
In FIG. 21 A, microglial cells were treated with different concentrations of achillolide A, dexamethasone or memantine (as reference drugs) and were concomitantly activated by LPS (4.5 ng/mL) for 20 h. Cell conditioned supernatants were collected, and the levels of NO were measured using Griess reaction. Cytotoxicity was measured using the LDH method (FIG. 21B). Values represent the mean±SEM (n=12 for each treatment). ** p<0.01; ***p<0.001 relative to cells that were treated to LPS only.

| SMILES | effect on Aβ25-35-induced cytotoxicity (N2a neuronal cells [1]) | effect on glutamate-induced cytotoxicity (N2a neuronal cells [2]) | effect on Aβ25-35-induced phosphorylation of CREB (CREB) | cytotoxic effect in activated microglial cells (microglial cells) |
| --- | --- | --- | --- | --- |
| COc1cc(-c2oc3cc(OC)c(OC)c(O)c3c(=O)c2O)ccc1O [TTF, 3,5,4′-trihydroxy-6,7,3′-trimethoxyflavone] | prevents the cytotoxic effect at nanomolar concentrations | prevents the cytotoxic effect at nanomolar concentrations | significantly inhibited |  |
| C=C1CCC2=C(CO)C(=O)O[C@H]2/C=C(\C)[C@H](OC(C)=O)CC1=O [achillolide A] | prevents the cytotoxic effect at nanomolar concentrations | prevents the cytotoxic effect at nanomolar concentrations | down-regulates | without a significant cytotoxic effect |
